Assay results as given in patent publication US6358885B1, “Substituted phenylheterocyclic herbicides” (Mississippi State University, priority 1992, dated 2002).

Assays:
barnyardgrass = experiment: Test C flood test plant response rating 0 to 100; type: in vivo, Echinochloa crus-galli; conditions: for Plant response rating (0 to 100), Barnyardgrass: under POSTEMERGENCE head (flood test species); for Plant response rating, Barnyardgrass: flood test species listed under POSTEMERGENCE, 0 to 100 scale
Excerpt: (§1) The compounds evaluated in this test were formulated in a non-phytoxic solvent and applied to the soil surface before plant seedlings emerged (preemergence application), to water that covered the soil surface (flood application), and to plants that were in the one-to-four leaf stage (postemergence application). A sandy loam soil was used for the preemergence and postemergence tests, while a silt loam soil was used in the flood test. Water depth was approximately 2.5 cm for the flood test and was maintained at this level for the duration of the test. Plant species in the preemergence and postemergence tests consisted of barley (Hordeum vulgare), bedstraw (Galium aparine), blackgrass (Alopecurus myosuroides), chickweed (Stellaria media), corn (Zea mays), cotton (Gossypium hirsutum), crabgrass (Digitaria sanguinalis), downy brome (Bromus tectorum), giant foxtail (Setaria faberii), lambsquarters (Chenopodium album), morningglory (Ipomoea hederacea), pigweed ([…]), rape (Brassica napus), ryegrass (Lolium multiflorum), sorghum (Sorghum bicolor), soybean (Glycine max), speedwell (Veronica persica), sugar beet (Beta vulgaris), velvetleaf (Abutilon theophrasti), wheat (Triticum aestivum), wild buckwheat (Polygonum convolvulus), and wild oat (Avena fatua). All plant species were planted one day before application of the compound for the preemergence portion-of this test. Plantings of these species were adjusted to produce plants of appropriate size for the post-emergence portion of the test. […] All plant species were grown using normal greenhouse practices. Visual evaluations of injury expressed on treated plants, when compared to untreated controls, were recorded approximately fourteen to twenty one days after application of the test compound. […] A dash (-) response means no test result.

crabgrass = experiment: Test B preemergence/postemergence greenhouse plant response rating 0 to 10; type: in vivo, Digitaria spp.; conditions: for Plant response rating, Crabgrass: 0 to 10 scale
In short: (§2)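 Planted seeds are treated preemergence with compound dissolved in a non-phytotoxic solvent, while postemergence applications go onto plants of two to eighteen cm. Plants stay in the greenhouse twelve to sixteen days and are then rated visually relative to controls.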

pigweed = experiment: Test C preemergence/postemergence greenhouse plant response rating 0 to 100; type: in vivo, Amaranthusretroflexus; conditions: POSTEMERGENCE; for Plant response rating Pigweed: 0 to 100 scale
Excerpt: as §1

soybean = experiment: Test B preemergence/postemergence greenhouse plant response rating 0 to 10; type: in vivo, Glycine max; conditions: 0 to 10 scale
In short: as §2

rice [1] = experiment: Test C flood test plant response rating 0 to 100; type: in vivo, Oryza sativa; conditions: for Plant response rating Rice Japonica: flood test species listed under POSTEMERGENCE, 0 to 100 scale
Excerpt: as §1

purple nutsedge = experiment: Test B preemergence/postemergence greenhouse plant response rating 0 to 10; type: in vivo, Cyperus rotundus; conditions: 0 to 10 scale
In short: as §2

corn = experiment: Test C preemergence/postemergence greenhouse plant response rating 0 to 100; type: in vivo, Zea mays; conditions: POSTEMERGENCE; for Plant response rating, Corn: 0 to 100 scale
Excerpt: as §1

cocklebur = experiment: Test B preemergence/postemergence greenhouse plant response rating 0 to 10; type: in vivo, Xanthium pensylvanicum; conditions: for Plant response rating, Cocklebur: 0 to 10 scale
In short: as §2

bedstraw = experiment: as above; type: in vivo, Galium aparine; conditions: for Plant response rating, Bedstraw: 0 to 10 scale
In short: as §2

morningglory = experiment: Test C preemergence/postemergence greenhouse plant response rating 0 to 100; type: in vivo, Ipomoea hederacea; conditions: POSTEMERGENCE; for Plant response rating, Morningglory: 0 to 100 scale
Excerpt: as §1

blackgrass = experiment: Test B preemergence/postemergence greenhouse plant response rating 0 to 10; type: in vivo, Alopecurus myosuroides; conditions: for Plant response rating, Blackgrass: 0 to 10 scale
In short: as §2

sugar beet = experiment: as above; type: in vivo, Beta vulgaris; conditions: 0 to 10 scale
In short: as §2

barley = experiment: as above; type: in vivo, Hordeum vulgare; conditions: for Plant response rating, Barley: 0 to 10 scale
In short: as §2

umbrella sedge = experiment: Test C flood test plant response rating 0 to 100; type: in vivo, Cyperus difformis; conditions: for Plant response rating Umbrella sedge: flood test species listed under POSTEMERGENCE, 0 to 100 scale
Excerpt: as §1

lambsquarters = experiment: Test B preemergence/postemergence greenhouse plant response rating 0 to 10; type: in vivo, Chenopodium album; conditions: 0 to 10 scale
In short: as §2

rape = experiment: as above; type: in vivo, Brassica napus; conditions: 0 to 10 scale
In short: as §2

rice [2] = experiment: as above; type: in vivo, Oryza sativa; conditions: 0 to 10 scale
In short: as §2

sorghum = experiment: Test C preemergence/postemergence greenhouse plant response rating 0 to 100; type: in vivo, Sorghum bicolor; conditions: POSTEMERGENCE; for Plant response rating, Sorghum: 0 to 100 scale
Excerpt: as §1

[3] = POSTEMERGENCE section, flood test, Rate 4 g/ha
[4] = Rate 16 g/ha, under POSTEMERGENCE head (flood test species)

In the case of COc1cc(-c2nn3c(c2Cl)CCCC3)c(F)cc1Cl [Compound 29], the “Plant response rating (0 to 100), Barnyardgrass” value (barnyardgrass; Rate 4 g/ha) is reported as 100, the “Plant response rating (0 to 100), Barnyardgrass” value (barnyardgrass; Rate 16 g/ha) is reported as 100 and the “Plant response rating, Barnyardgrass” value (barnyardgrass; 62 g/ha) is reported as 100. For the same compound, the “Plant response rating, Barnyardgrass” value (barnyardgrass; 250 g/ha) was 100, the “Plant response rating (0 to 10 scale), Crabgrass” value (crabgrass; POSTEMERGENCE, Rate 50 g/ha) was 4 and the “Plant response rating, Crabgrass” value (crabgrass; POSTEMERGENCE, Rate 200 g/ha) was 5. The “Plant response rating, Crabgrass” value (crabgrass; PREEMERGENCE, Rate 50 g/ha) was 8, the “Plant response rating, Crabgrass” value (crabgrass; Rate 200 g/ha, PREEMERGENCE) was 9 and the “Plant response rating Pigweed” value (pigweed; 62 g/ha) was 100. For the same compound, the “Plant response rating Pigweed” value (pigweed; 250 g/ha) was 100, the “Plant response rating (0 to 100), Pigweed” value (pigweed; Rate 4 g/ha) was 50 and the “Plant response rating (0 to 100), Pigweed” value (pigweed; Rate 16 g/ha) was 100. For the same compound, the “Plant response rating, Soybean” value (soybean; POSTEMERGENCE, Rate 50 g/ha) was 8, the “Plant response rating, Soybean” value (soybean; PREEMERGENCE, Rate 50 g/ha) was 1 and the “Plant response rating, Soybean” value (soybean; Rate 200 g/ha, POSTEMERGENCE) was 9. The “Plant response rating, Soybean” value (soybean; Rate 200 g/ha, PREEMERGENCE) was 5, the “Plant response rating (0 to 100), Rice Japonica” value (rice [1]; [3]) was 30 and the “Plant response rating (0 to 100), Rice Japonica” value (rice [1]; [4]) was 65. For the same compound, the “Plant response rating Rice Japonica” value (rice [1]; 62 g/ha) was 70, the “Plant response rating Rice Japonica” value (rice [1]; 250 g/ha) was 90 and the “Plant response rating, Nutsedge” value (purple nutsedge; POSTEMERGENCE, Rate 50 g/ha) was 4. The “Plant response rating, Nutsedge” value (purple nutsedge; PREEMERGENCE, Rate 50 g/ha) was 0, the “Plant response rating, Nutsedge” value (purple nutsedge; Rate 200 g/ha, POSTEMERGENCE) was 4 and the “Plant response rating, Nutsedge” value (purple nutsedge; Rate 200 g/ha, PREEMERGENCE) was 0. For the same compound, the “Plant response rating, Corn” value (corn; 62 g/ha) was 40, the “Plant response rating, Corn” value (corn; 250 g/ha) was 50 and the “Plant response rating (0 to 100), Corn” value (corn; Rate 4 g/ha) was 20. For the same compound, the “Plant response rating (0 to 100), Corn” value (corn; Rate 16 g/ha) was 20, the “Plant response rating (0 to 10 scale), Cocklebur” value (cocklebur; POSTEMERGENCE, Rate 50 g/ha) was 6 and the “Plant response rating, Cocklebur” value (cocklebur; POSTEMERGENCE, Rate 200 g/ha) was 10. For the same compound, the “Plant response rating, Cocklebur” value (cocklebur; PREEMERGENCE, Rate 50 g/ha) was 2, the “Plant response rating, Cocklebur” value (cocklebur; Rate 200 g/ha, PREEMERGENCE) was 4 and the “Plant response rating (0 to 10 scale), Bedstraw” value (bedstraw; POSTEMERGENCE, Rate 50 g/ha) was 7. The “Plant response rating, Bedstraw” value (bedstraw; POSTEMERGENCE, Rate 200 g/ha) was 10, the “Plant response rating, Bedstraw” value (bedstraw; PREEMERGENCE, Rate 50 g/ha) was 7 and the “Plant response rating, Bedstraw” value (bedstraw; Rate 200 g/ha, PREEMERGENCE) was 9. The “Plant response rating, Morningglory” value (morningglory; 62 g/ha) was 80, the “Plant response rating, Morningglory” value (morningglory; 250 g/ha) was 100 and the “Plant response rating (0 to 100), Morningglory” value (morningglory; Rate 4 g/ha) was 70. For the same compound, the “Plant response rating (0 to 100), Morningglory” value (morningglory; Rate 16 g/ha) was 80, the “Plant response rating (0 to 10 scale), Blackgrass” value (blackgrass; POSTEMERGENCE, Rate 50 g/ha) was 3 and the “Plant response rating, Blackgrass” value (blackgrass; POSTEMERGENCE, Rate 200 g/ha) was 6. For the same compound, the “Plant response rating, Blackgrass” value (blackgrass; PREEMERGENCE, Rate 50 g/ha) was 5, the “Plant response rating, Blackgrass” value (blackgrass; Rate 200 g/ha, PREEMERGENCE) was 7 and the “Plant response rating, Sugar beet” value (sugar beet; POSTEMERGENCE, Rate 50 g/ha) was 10. The “Plant response rating, Sugar beet” value (sugar beet; PREEMERGENCE, Rate 50 g/ha) was 7, the “Plant response rating, Sugar beet” value (sugar beet; Rate 200 g/ha, POSTEMERGENCE) was 10 and the “Plant response rating, Sugar beet” value (sugar beet; Rate 200 g/ha, PREEMERGENCE) was 10. The “Plant response rating (0 to 10 scale), Barley” value (barley; POSTEMERGENCE, Rate 50 g/ha) was 5, the “Plant response rating, Barley” value (barley; POSTEMERGENCE, Rate 200 g/ha) was 7 and the “Plant response rating, Barley” value (barley; PREEMERGENCE, Rate 50 g/ha) was 0. The “Plant response rating, Barley” value (barley; Rate 200 g/ha, PREEMERGENCE) was 4, the “Plant response rating (0 to 100), Umbrella sedge” value (umbrella sedge; [3]) was 20 and the “Plant response rating (0 to 100), Umbrella sedge” value (umbrella sedge; [4]) was 30. For the same compound, the “Plant response rating Umbrella sedge” value (umbrella sedge; 62 g/ha) was 90, the “Plant response rating Umbrella sedge” value (umbrella sedge; 250 g/ha) was 95 and the “Plant response rating, Lambsquarter” value (lambsquarters; POSTEMERGENCE, Rate 50 g/ha) was 10. For the same compound, the “Plant response rating, Lambsquarter” value (lambsquarters; PREEMERGENCE, Rate 50 g/ha) was 10, the “Plant response rating, Lambsquarter” value (lambsquarters; Rate 200 g/ha, POSTEMERGENCE) was 10 and the “Plant response rating, Lambsquarter” value (lambsquarters; Rate 200 g/ha, PREEMERGENCE) was 10. The “Plant response rating, Rape” value (rape; POSTEMERGENCE, Rate 50 g/ha) was 8, the “Plant response rating, Rape” value (rape; PREEMERGENCE, Rate 50 g/ha) was 8 and the “Plant response rating, Rape” value (rape; Rate 200 g/ha, POSTEMERGENCE) was 10. The “Plant response rating, Rape” value (rape; Rate 200 g/ha, PREEMERGENCE) was 10, the “Plant response rating, Rice” value (rice [2]; POSTEMERGENCE, Rate 50 g/ha) was 4 and the “Plant response rating, Rice” value (rice [2]; PREEMERGENCE, Rate 50 g/ha) was 0. The “Plant response rating, Rice” value (rice [2]; Rate 200 g/ha, POSTEMERGENCE) was 7, the “Plant response rating, Rice” value (rice [2]; Rate 200 g/ha, PREEMERGENCE) was 2 and the “Plant response rating, Sorghum” value (sorghum; 62 g/ha) was 20. For the same compound, the “Plant response rating, Sorghum” value (sorghum; 250 g/ha) was 50, the “Plant response rating (0 to 100), Sorghum” value (sorghum; Rate 4 g/ha) was 0 and the “Plant response rating (0 to 100), Sorghum” value (sorghum; Rate 16 g/ha) was 0.
